pIC50: −log10 of the molar value.
Columns and labels:
[1] = system: JAK2 pathway (P-STAT5 in TF-1 human erythroleukemia cells + EPO); test: P-STAT5 TF-1+Erythropoietin (EPO) assay; format: cell-based; conditions: Homo sapiens, TF-1, 0.5 h, TF-1 cells, 30 minutes compound, EPO 30 min; IC50 by four-parameter fit; read-out: Cellular (JAK2 PSTAT5 TF1 + EPO)
Description: (§1) TF-1 human erythroleukemia cells (ATCC®; Manassas, VA; Catalog No. CRL-2003™) were grown in Roswell Park Memorial Institute (RPMI) medium supplemented with 10% heat-inactivated fetal bovine serum (FBS), 2 ng/mL granulocyte-macrophage colony-stimulating factor, 1× non-essential amino acids (NEAA), and 1 mM sodium pyruvate. The day before the assay, the cultures were transferred to Opti-MEM™, 1×NEAA, 1 mM sodium pyruvate, and 0.5% charcoal-stripped FBS (starve medium). Inhibitor stock solutions (5 mM in DMSO) were serially diluted 1:2 in DMSO to generate a 10-point concentration titration (at 500× test concentration), which was further diluted by a 50-fold dilution in Assay Medium (RPMI containing 1×NEAA and 1 mM sodium pyruvate) to generate a 10× concentration titration (in 2% DMSO). The cells (300,000 cells/well in 35 μL of Assay Medium) were seeded in 384-well Greiner plates. Diluted inhibitor at 10× concentration (5 μL) was added to the cells and the plates were incubated for 30 minutes at 37° C. in a humidified incubator. Cells were stimulated with the human recombinant cytokine at the respective EC90 concentrations, as previously determined for each individual lot. For the phosphorylated signal transducer and activator of transcription 6 (P-STAT6) TF-1+Interleukin-13 (IL-13) assay, 10 μL of 250 ng/mL IL-13 (R&D Systems; Minneapolis, MN) was added to the cells, which were then incubated for 10 minutes at 37° C. For the P-STAT5 TF-1+Erythropoietin (EPO) assay, 10 μL of 110 IU/mL EPO (Gibco Life Technologies, Catalog No. PHC2054) was added to the cells, which were then incubated for 30 min at 37° C. For both assays, the incubation was followed by addition to the cells of 5 μL of ice-cold 10× cell lysis buffer (Cell Signaling Technologies; Danvers, MA; Catalog No. 9803S) containing 1 mM phenylmethylsulfonyl fluoride (PMSF). Assay plates were frozen at −80° C. for a minimum of 1 hour. In the IL-13 assay, P-STAT6 was measured by coating goat anti-rabbit (GAR) plates (Meso Scale Discovery [MSD]; Rockville, MD; Catalog No. MSD L21RA-1) with rabbit anti-human total STAT6 antibody (Cell Signaling Technologies; Catalog No. 9362S), incubating the cell lysates in the coated plates overnight at 4° C., and then detecting with mouse anti-P-STAT6 (Tyr641) Clone 16E12 antibody (MilliporeSigma; Burlington, MA; Catalog No. 05-590, custom labeled by MSD with SULFO-tag) using standard MSD plate processing, washing, and detection protocols. In the EPO assay, P-STAT5 was detected using the phospho-STAT5a,b Whole Cell Lysate Kit (MSD; Catalog No. K150IGD-1). The electrochemiluminescence (ECL) signal of wells was read on the MESO SECTOR S600 (MSD) reader.
(§2) Data analysis was performed by subtracting the negative control (cytokine stimulated and 20 μM control inhibitor-treated cells) mean ECL value from the ECL value of all wells, determining percent of control for test compound well ECL values relative to the positive control (cytokine stimulated and DMSO-treated cells) mean ECL value, and determining the IC50 for test compounds with a four-parameter logistic fit model as shown in Equation 4.

[2] = system: JAK1 pathway (P-STAT6 in TF-1 human erythroleukemia cells + IL-13); test: P-STAT6 TF-1+Interleukin-13 (IL-13) assay; format: cell-based; conditions: Homo sapiens, TF-1, 0.5 h, TF-1 cells, 30 minutes compound, IL-13 10 minutes; IC50 by four-parameter fit; read-out: Cellular PSTAT6 TF-1 + IL13
Description: as §1, §2

| pIC50 [1] | pIC50 [2] | SMILES |
| --- | --- | --- |
| 7.29 | 7.66 | O=C(Nc1cn(Cc2nnnn2C2CNC2)nc1-c1cc(OC(F)F)ccc1OC(F)F)c1cnn2cccnc12 [Example 12, N-[1-[[1-(azetidin-3-yl)tetrazol-5-yl]methyl]-3-[2,5-bis(difluoromethoxy)phenyl]pyrazol-4-yl]pyrazolo[1,5-a]pyrimidine-3-carboxamide] |
| 7.33 | 7.21 | CN1CC(N2CC(n3nnc(Cn4cc(NC(=O)c5cnn6cccnc56)c(-c5cc(OC(F)F)ccc5OC(F)F)n4)n3)C2)C1 [Example 78, N-[3-[2,5-bis(difluoromethoxy)phenyl]-1-[[2-[1-(1-methylazetidin-3-yl)azetidin-3-yl]tetrazol-5-yl]methyl]pyrazol-4-yl]pyrazolo[1,5-a]pyrimidine-3-carboxamide; formic acid] |
| 7.38 | 7.68 | CN1CCC(N2CC(n3nnc(Cn4cc(NC(=O)c5cnn6cccnc56)c(-c5cc(OC(F)F)ccc5OC(F)F)n4)n3)C2)CC1 [Example 38, N-[3-[2,5-bis(difluoromethoxy)phenyl]-1-[[2-[1-(1-methyl-4-piperidyl)azetidin-3-yl]tetrazol-5-yl]methyl]pyrazol-4-yl]pyrazolo[1,5-a]pyrimidine-3-carboxamide] |
| 7.80 | 8.16 | CN(C)CCN1CC(n2nnc(Cn3cc(NC(=O)c4cnn5cccnc45)c(-c4cc(Cl)ccc4OC(F)F)n3)n2)C1 [Example 37, N-[3-[5-chloro-2-(difluoromethoxy)phenyl]-1-[[2-[1-[2-(dimethylamino)ethyl]azetidin-3-yl]tetrazol-5-yl]methyl]pyrazol-4-yl]pyrazolo[1,5-a]pyrimidine-3-carboxamide] |
| 8.29 | 8.40 | CN1CC(n2nnc(Cn3cc(NC(=O)c4cnn5cccnc45)c(-c4cc(OC(F)F)ccc4OC(F)F)n3)n2)C1 [Example 10, N-[3-[2,5-bis(difluoromethoxy)phenyl]-1-[[2-(1-methylazetidin-3-yl)tetrazol-5-yl]methyl]pyrazol-4-yl]pyrazolo[1,5-a]pyrimidine-3-carboxamide] |
| 8.09 | 8.13 | CN1CC(n2nnc(Cn3cc(NC(=O)c4cnn5cccnc45)c(-c4cc(C5CC5)ccc4OC(F)F)n3)n2)C1 [Example 23, N-[3-[5-cyclopropyl-2-(difluoromethoxy)phenyl]-1-[[2-(1-methylazetidin-3-yl)tetrazol-5-yl]methyl]pyrazol-4-yl]pyrazolo[1,5-a]pyrimidine-3-carboxamide] |
| 7.89 | 8.30 | CN1CC(n2nnc(Cn3cc(NC(=O)c4cnn5cccnc45)c(-c4cc(Cl)ccc4OC(F)F)n3)n2)C1 [Example 7, N-[3-[5-chloro-2-(difluoromethoxy)phenyl]-1-[[2-(1-methylazetidin-3-yl)tetrazol-5-yl]methyl]pyrazol-4-yl]pyrazolo[1,5-a]pyrimidine-3-carboxamide] |
| 7.92 | 7.92 | CN(C)CCn1nnc(Cn2cc(NC(=O)c3cnn4cccnc34)c(-c3cc(OC(F)F)ccc3OC(F)F)n2)n1 [Example 16, N-[3-[2,5-bis(difluoromethoxy)phenyl]-1-[[2-[2-(dimethylamino)ethyl]tetrazol-5-yl]methyl]pyrazol-4-yl]pyrazolo[1,5-a]pyrimidine-3-carboxamide] |

Reference: patent publication US12247032B2, “Substituted pyrazolo[1,5-a]pyrimidines as inhibitors of JAK kinases” (Genentech, Inc., priority 2019, dated 2025)
